Patent publication US12668589B2, “N-formamidopyrazoline derivative as P2X3 receptor antagonist and use thereof” (HANGZHOU WESTAN PHARMACEUTICAL TECHNOLOGY CO., LTD, priority 2020, dated 2026)

What was measured:
taste of SD rats = assay: Rat taste test (quinine water / tap water drinking); format: in vivo
Experimental: Experimental purpose: to observe an effect of title compounds on taste of SD rats.
• 1.1) Animals and grouping: 40 male SD rats, with about 300 grams per rat. […] A bottle of normal drinking water and a bottle of drinking water containing 0.3 mM quinine hydrochloride were placed in each cage at the same time, and left and right positions where the two bottles of water were placed in all animal feeding cages were the same. After the animals were allowed to freely drink water for 15 minutes, drinking amounts of the two bottles of water were measured respectively to the nearest 0.1 mL. • 1.5) Data statistics: drinking amounts of quinine bitter water and tap water and a total water drinking amount thereof as well as a percentage of quinine water in the total water drinking amount were counted respectively. Water drinking amounts of the bitter water of animals in each group were compared. Whether differences between groups were significant was compared by analysis of variance. 2) Experimental Results

chronic cough = settings: literature, cited from earlier work
human PAR-1 = target: T1, human PAR-1 (Homo sapiens, UniProt P25116); assay: Inhibitory activity against PAR-1, calcium ion flux fluorescence method (FLIPR); format: cell-based; settings: HEK293/Ga15 cells expressing human PAR-1, TFLLR-NH2 10 μM, starting concentration 30 μM
T1 construct: host or cells: HEK293/Ga15 recombinant cell line
T1 sequence (P25116 22-425): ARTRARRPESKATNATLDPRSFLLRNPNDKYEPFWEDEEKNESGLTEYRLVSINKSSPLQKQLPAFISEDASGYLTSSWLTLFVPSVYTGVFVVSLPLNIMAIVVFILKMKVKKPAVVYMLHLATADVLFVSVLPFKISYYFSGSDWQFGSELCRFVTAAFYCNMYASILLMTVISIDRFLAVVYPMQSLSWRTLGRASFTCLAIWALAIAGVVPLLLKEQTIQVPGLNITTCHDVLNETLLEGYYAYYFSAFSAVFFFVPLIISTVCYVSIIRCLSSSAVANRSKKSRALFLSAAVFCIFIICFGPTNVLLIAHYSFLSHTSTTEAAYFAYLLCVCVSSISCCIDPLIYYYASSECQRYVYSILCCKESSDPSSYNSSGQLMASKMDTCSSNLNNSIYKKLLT
Experimental: The inhibitory activity of the title compounds against human PAR-1 was determined by a calcium ion flux fluorescence method (an FLIPR method). The method thereof was reported in the literature of Zhong et al. [Zhong et al. J Biomol Struct Dyn, 2017, 35(13):2853].
An HEK293/Ga15 recombinant cell line (HD Biosciences, Shanghai, China) stably expressing human PAR-1 was cultured in a DMEM (Thermo Fisher Scientific, Shanghai) culture solution (containing 10% calf serum, 800 μg/mL G418). Incubator conditions were 37° C. and an air humidity with 5% CO2.
On the first day, 20 μL per well of PAR-1 cells at a concentration of 4E+5 cells/mL were seeded in a 384-well analysis plate (Corning 3712). […] On the second day, a culture solution in each well was poured off. Then, 20 μL of 1×loading dye (2 μM Fluo-8 AM in 1×HBSS with 20 mM HEPES, 1 mM Probenecid, 0.025% Pluronic F-127 assay buffer) was added in each well. The cell analysis plate was cultured for 1 hour at a room temperature.
The compounds were dissolved into 100% DMSO to prepare a 10 mM stock solution, which was stored at −20° C. On the day of use, the compound stock solution was thawed at a room temperature. Each compound was subjected to 1:3 serial dilution at 11 concentration points with a DMEM culture solution with a starting concentration of 30 μM. Each compound was subjected to double dilution for testing. A positive control compound was diluted in the same way with SCH79797 with a starting concentration of 30 μM.
The cell analysis plate was placed in a FLIPR instrument (Molecular Device) and 10 μL of compounds (3× of a final concentration) in a compound plate was added to corresponding wells of the cell analysis plate. After 10 minutes, 10 μL of TFLLR-NH2 (TFA) (a final concentration of 10 μM) was added to each well to stimulate generation of intracellular calcium flux signals. Ca^++-dependent fluorescence signals were continuously monitored at excitation wavelengths of 470/495 nm and emission wavelengths of 515/575 nm to analyze the inhibitory activity of the compounds.
Data were collected and analyzed by using an FLIPR program. The inhibitory (or agonistic) activity of the compounds at each concentration was assessed by fluorescence peaks. IC50 values of the compounds were calculated by using EXCEL and PRISM programs.

rP2X3 = target: T2, rP2X3 (Rattus norvegicus, UniProt P49654); assay: Inhibitory activity against P2X3 in rats (electrophysiological method); format: cell-based
T2 construct: expressed in transfected cells; host or cells: HEK293
T2 sequence (P49654 1-397): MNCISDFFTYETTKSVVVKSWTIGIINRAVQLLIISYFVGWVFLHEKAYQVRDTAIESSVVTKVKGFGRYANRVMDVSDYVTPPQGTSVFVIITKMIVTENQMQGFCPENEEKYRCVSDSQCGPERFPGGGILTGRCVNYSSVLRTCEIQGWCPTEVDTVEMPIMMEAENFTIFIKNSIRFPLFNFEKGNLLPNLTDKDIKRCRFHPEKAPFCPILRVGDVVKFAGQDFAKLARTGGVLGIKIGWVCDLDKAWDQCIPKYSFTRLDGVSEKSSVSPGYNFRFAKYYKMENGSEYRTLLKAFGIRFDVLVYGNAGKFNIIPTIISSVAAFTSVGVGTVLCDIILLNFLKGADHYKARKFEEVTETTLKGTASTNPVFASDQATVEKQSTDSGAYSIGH

gpP2X3 = target: T3, gpP2X3 (Cavia porcellus, UniProt H0VWY5); assay: Inhibitory activity against P2X3 in guinea pigs (electrophysiological method); format: cell-based; settings: guinea pig P2X3, electrophysiological method
T3 sequence (H0VWY5 1-391): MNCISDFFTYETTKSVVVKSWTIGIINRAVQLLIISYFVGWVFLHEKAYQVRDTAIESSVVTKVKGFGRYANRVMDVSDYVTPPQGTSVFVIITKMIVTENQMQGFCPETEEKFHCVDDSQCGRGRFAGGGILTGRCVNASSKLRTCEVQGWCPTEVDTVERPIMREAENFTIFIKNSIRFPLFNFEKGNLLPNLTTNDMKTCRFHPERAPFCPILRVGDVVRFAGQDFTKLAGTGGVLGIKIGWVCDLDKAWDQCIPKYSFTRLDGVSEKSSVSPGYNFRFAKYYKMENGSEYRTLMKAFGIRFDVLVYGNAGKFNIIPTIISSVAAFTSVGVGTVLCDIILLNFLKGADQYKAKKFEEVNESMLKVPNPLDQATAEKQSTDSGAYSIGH

human P2X3 = target: T4, human P2X3 (Homo sapiens, UniProt P56373); assay: cell-based
T4 sequence (P56373 1-397): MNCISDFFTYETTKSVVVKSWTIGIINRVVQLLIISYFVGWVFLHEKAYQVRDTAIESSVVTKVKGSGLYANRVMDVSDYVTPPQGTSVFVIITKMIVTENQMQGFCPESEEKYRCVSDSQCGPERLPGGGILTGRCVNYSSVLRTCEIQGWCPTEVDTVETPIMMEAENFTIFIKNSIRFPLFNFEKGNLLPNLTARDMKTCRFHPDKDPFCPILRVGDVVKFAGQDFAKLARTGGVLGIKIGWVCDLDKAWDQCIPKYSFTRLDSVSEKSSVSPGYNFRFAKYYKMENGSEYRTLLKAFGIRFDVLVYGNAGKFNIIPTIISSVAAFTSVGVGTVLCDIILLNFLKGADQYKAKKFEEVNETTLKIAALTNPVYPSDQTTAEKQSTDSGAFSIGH
Experimental: An HEK293 cell line was used as cells. HEK293 cells were placed in a 37° C. incubator with 5% CO2 for culture. Passage was conducted when the cells grew to a density of 80% to 90%. A culture medium in an original 60 mm culture dish was discarded. After the cells were washed 3 times with a sterilized PBS solution, and the solution was blotted up. […] After the trypsin was blotted up, 3 mL of a cell culture medium was added to resuspend the cells. 0.5 mL of a resuspension solution was taken to be added into a new culture dish, and an total culture solution was supplemented to 5 mL. The culture dish was gently shaken to distribute the cells evenly, and then placed in a 37° C. incubator with 5% CO2 for culture.
First, treated slides were spread in a small 35 mm culture dish. 100 μL of resuspended cells were added, and then a total amount of a culture medium was supplemented to 2 mL. Target genes were transferred into the HEK293 cell line by adopting a calcium transfection method. Small dishes to be transfected were subjected to medium change 1 hour before transfection. 2 mL of a fresh cell culture solution was added. A 1.5 mL EP tube was taken, 200 μL of a 0.25 M CaCl2) solution was added, and 3 μg of plasmids to be transfected were added, and even mixing was conducted to form a DNA-CaCl2 solution. […] A pipette tip was used for mixing while adding. After adding all, gentle blowing and beating were conducted 8 to 10 times. After still standing for 5 minutes, they were added into small dishes. The small dishes were shaken slightly to mix the solution evenly, and the placed in a cell incubator. Culture mediums were replaced after 8 to 10 hours. Electrophysiological experiments were performed 24 to 48 hours after transfection.
Electrophysiological recording electrodes were obtained by two-step pulling by using an electrode puller (PP-10, Narishige). After an internal solution is injected into the electrodes, a water inlet resistance is 3 to 5 MΩ. During the experiment, a high potassium salt internal solution containing nystatin (K2SO4 of 75 mM, KCl of 120 mM, MgSO4 of 5 mM, HEPES of 10 mM, adjusting pH to 7.2 with Tris-base, and used after filtration) was used as an electrode internal solution. After the cells were sealed by the electrodes, there was no need to further break cell membranes in a sucked manner, but the cell membranes were bored through the perforation of the nystatin to the cell membranes, to form a hole channel. […] A clamping voltage was −60 mV, a sampling frequency was 10 kHz, and filtering was conducted at 2 kHz.
A working concentration of a P2X3 receptor agonist ATP was 1 μM, and an interval time between two times of ATP administrations was 10 minutes.

human P2X4 = target: T5, human P2X4 (Homo sapiens, UniProt Q99571); assay: Inhibitory activity against human P2X4 (electrophysiological method); format: cell-based; settings: read-out: hP2X4 (IC50)
T5 construct: expressed in transfected cells; host or cells: HEK293
T5 sequence (Q99571 1-388): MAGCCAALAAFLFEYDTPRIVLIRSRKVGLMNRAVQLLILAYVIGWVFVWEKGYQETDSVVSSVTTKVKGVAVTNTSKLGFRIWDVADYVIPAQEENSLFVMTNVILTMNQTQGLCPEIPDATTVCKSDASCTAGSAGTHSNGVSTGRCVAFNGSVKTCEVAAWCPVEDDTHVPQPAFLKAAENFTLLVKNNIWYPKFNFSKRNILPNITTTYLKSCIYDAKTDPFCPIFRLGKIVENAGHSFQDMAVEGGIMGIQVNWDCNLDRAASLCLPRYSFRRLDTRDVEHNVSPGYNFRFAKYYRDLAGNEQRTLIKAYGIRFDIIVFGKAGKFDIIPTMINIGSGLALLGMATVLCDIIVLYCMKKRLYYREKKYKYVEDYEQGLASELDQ

IC50 (human PAR-1) [nM]	IC50 (human P2X3) [nM]	IC50 (human P2X4) [nM]	SMILES	further results
–	–	–	COc1cc(C(C)C)c(Oc2cnc(N)nc2N)cc1S(N)(=O)=O [AF-219, reference compound]	Water drinking amount, Tap water (taste of SD rats; 10 mg/kg intraperitoneal injection, free drinking 15 minutes, amounts measured to the nearest 0.1 mL): 8.69; Water drinking amount, Sum (taste of SD rats; 10 mg/kg intraperitoneal injection, tap plus quinine water, 15 minutes, measured to the nearest 0.1 mL): 14.02; Water drinking amount, Quinine (taste of SD rats; 10 mg/kg intraperitoneal injection, water with 0.3 mM quinine hydrochloride, 15 minutes, measured to the nearest 0.1 mL): 5.33; drinking amount of bitter water compared with solvent control group (taste of SD rats; 10 mg/kg intraperitoneal, result in words): increased significantly; frequency and severity of cough in patients with chronic cough (chronic cough; clinical data): significantly effective in reducing the frequency and severity of cough; taste disorders in treated subjects (chronic cough; clinical trials): can lead to taste disorders
> 30000	–	–	Cc1ccc(C2=NN(C(=O)N[C@H](C)c3ccc(C(F)(F)F)nc3)C[C@@H]2N2CCN(C)CC2=O)cc1 [Compound 17, (S)-4-(4-methyl-2-oxopiperazin-1-yl)-3-(4-methylphenyl)-N-((R)-1-(6-(trifluoromethyl)pyridin-3-yl)ethyl)-4,5-dihydro-1H-pyrazol-1-carboxamide]	IC50 (rP2X3): 140 nM; IC50 (gpP2X3): 387 nM
> 30000	129	> 20000	Cc1ccc(C2=NN(C(=O)N[C@H](C)c3ccc(C(F)(F)F)nc3)C[C@@H]2N2CCCC2=O)cc1 [Compound 21]	–
–	38	> 20000	Cc1ccc(C2=NN(C(=O)N[C@H](C)c3ccc(C(F)(F)F)nc3)C[C@H]2N2CCOC2=O)cc1 [Compound 22a, (R)-4-(2-oxooxazolidin-3-yl)-3-(4-methylphenyl)-N-((R)-1-(6-(trifluoromethyl)pyridin-3-yl)ethyl)-4,5-dihydro-1H-pyrazol-1-carboxamide]	IC50 (rP2X3): 57 nM; IC50 (gpP2X3): 578 nM
> 30000	–	–	Cc1ccc(C2=NN(C(=O)N[C@H](C)c3ccc(C(F)(F)F)nn3)C[C@@H]2N2CCOCC2=O)cc1 [Compound 30, (S)-4-(3-oxomorpholin-4-yl)-3-(4-methylphenyl)-N-((R)-1-(6-(trifluoromethyl)pyridazin-3-yl)ethyl)-4,5-dihydro-1H-pyrazol-1-carboxamide]	–
> 30000	–	–	Cc1ccc(C2=NN(C(=O)N[C@H](C)c3ccc(Cl)nn3)C[C@@H]2N2CCOC2=O)cc1 [Compound 31]	–
–	82	> 20000	Cc1ccc(C2=NN(C(=O)N[C@H](C)c3cnc(C(F)(F)F)nc3)C[C@H]2N2CCCC2=O)cc1 [Compound 32a, (R)-4-(2-oxopyrrolidin-1-yl)-3-(4-methylphenyl)-N-((R)-1-(2-(trifluoromethyl)pyrimidin-5-yl)ethyl)-4,5-dihydro-1H-pyrazol-1-carboxamide]	–
> 30000	–	–	Cc1ccc(C2=NN(C(=O)N[C@H](C)c3cnc(C(F)(F)F)nc3)C[C@@H]2N2CCOC2=O)cc1 [Compound 40, (S)-4-(2-oxooxazolidin-3-yl)-3-(4-methylphenyl)-N-((R)-1-(2-(trifluoromethyl)pyrimidin-5-yl)ethyl)-4,5-dihydro-1H-pyrazol-1-carboxamide]	–
> 30000	–	–	Cc1ccc(C2=NN(C(=O)N[C@H](C)c3cnc(C(F)(F)F)nc3)C[C@@H]2N2CCN(C)C2=O)cc1 [Compound 41]	–
> 30000	–	–	Cc1ccc(C2=NN(C(=O)N[C@H](C)c3nc(C)no3)C[C@@H]2N2CCCC2=O)cc1 [Compound 45]	–
